Converted amounts (≈) assume the structure as drawn.
Tests used:
Aspergillus fumigatus = experiment: Antifungal activity against Aspergillus fumigatus HIC6094 incubated for 16 to 20 hrs; format: functional; conditions: time 16-20 hrs
[1] = tested on: Trichophyton mentagrophytes; experiment: Antifungal activity against Trichophyton mentagrophytes IFM40996 incubated for 16 to 20 hrs; format: functional; conditions: time 16-20 hrs
Enterococcus faecalis = experiment: Antibacterial activity against Enterococcus faecalis ATCC 19433 incubated for 16 to 20 hrs; format: functional; conditions: time 16-20 hrs
Candida albicans = experiment: Antifungal activity against Candida albicans ATCC 10231 incubated for 16 to 20 hrs; format: functional; conditions: time 16-20 hrs
Staphylococcus aureus = experiment: Antibacterial activity against Staphylococcus aureus ATCC 25923 incubated for 16 to 20 hrs; format: functional; conditions: time 16-20 hrs
Escherichia coli = experiment: Antibacterial activity against Escherichia coli ATCC 25922 incubated for 16 to 20 hrs; format: functional; conditions: time 16-20 hrs
Trichophyton rubrum = experiment: Antifungal activity against Trichophyton rubrum NBRC9185 incubated for 16 to 20 hrs; format: functional; conditions: time 16-20 hrs
Salmonella enterica = experiment: microbe, parasite or virus in culture; conditions: ATCC 14028
Description: Antibacterial activity against Salmonella enterica ATCC 14028 incubated for 16 to 20 hrs

Klebsiella pneumoniae = experiment: Antibacterial activity against Klebsiella pneumoniae ATCC 10031 incubated for 16 to 20 hrs; format: functional; conditions: time 16-20 hrs
Enterococcus faecium = experiment: Antibacterial activity against Enterococcus faecium ATCC 19434 incubated for 16 to 20 hrs; format: functional; conditions: time 16-20 hrs

SMILES | MIC (Aspergillus fumigatus) [µg/mL] | MIC [1] [µg/mL] | MIC (Enterococcus faecalis) [µg/mL] | MIC (Candida albicans) [µg/mL] | MIC (Staphylococcus aureus) [µg/mL] | MIC (Escherichia coli) [µg/mL] | MIC (Trichophyton rubrum) [µg/mL] | MIC (Salmonella enterica) [µg/mL] | MIC (Klebsiella pneumoniae) [µg/mL] | MIC (Enterococcus faecium) [µg/mL]
CCCCCC/C=C\C[C@@H]1CC(=O)N[C@H](CC(C)C)C(=O)N[C@@H](CO)C(=O)N[C@@H]([C@@H](C)O)C(=O)N[C@H](Cc2ccccc2)C(=O)N[C@@H]([C@H](C)CC)C(=O)O1 | > 128 | > 128 | 32 (≈ 42.2 µM) | > 128 | 16 (≈ 21.1 µM) | > 128 | > 128 | 8 (≈ 10.6 µM) | > 128 | 32 (≈ 42.2 µM)
CN(C)[C@@H]1C(O)=C(C(N)=O)C(=O)[C@@]2(O)C(O)=C3C(=O)c4c(O)cccc4[C@@](C)(O)[C@H]3C[C@@H]12 [TETRACYCLINE] | – | – | – | – | – | – | – | – | 0.25 (≈ 0.563 µM) | –
CCCCCCC[C@@H]1CC(=O)N[C@H](CC(C)C)C(=O)N[C@@H](CO)C(=O)N[C@@H]([C@@H](C)O)C(=O)N[C@H](Cc2ccccc2)C(=O)N[C@@H]([C@H](C)CC)C(=O)O1 | > 128 | > 128 | 32 (≈ 43.7 µM) | > 128 | 32 (≈ 43.7 µM) | > 128 | > 128 | 32 (≈ 43.7 µM) | > 128 | 32 (≈ 43.7 µM)
CCCCCCCCC[C@@H]1CC(=O)N[C@H](CC(C)C)C(=O)N[C@@H](CO)C(=O)N[C@@H]([C@@H](C)O)C(=O)N[C@H](Cc2ccccc2)C(=O)N[C@@H]([C@H](C)CC)C(=O)O1 | > 128 | > 128 | 64 (≈ 84.2 µM) | > 128 | 16 (≈ 21.1 µM) | > 128 | > 128 | 16 (≈ 21.1 µM) | > 128 | 32 (≈ 42.1 µM)
CCCCCCC[C@@H]1CC(=O)N[C@H](CC(C)C)C(=O)N[C@@H](CO)C(=O)N[C@@H]([C@@H](C)O)C(=O)N[C@H](Cc2ccc(O)cc2)C(=O)N[C@@H](C(C)C)C(=O)O1 | > 128 | > 128 | > 128 | > 128 | > 128 | > 128 | > 128 | > 128 | > 128 | > 128
CCCCCCC[C@@H](O)CC(=O)N[C@H](CC(C)C)C(=O)N[C@@H](CO)C(=O)N[C@H](C(=O)N[C@H](Cc1ccccc1)C(=O)N[C@H](C(=O)OC)[C@H](C)CC)[C@@H](C)O | > 128 | > 128 | > 128 | > 128 | > 128 | > 128 | > 128 | > 128 | > 128 | > 128
C[C@@H]1[C@H](O)[C@@H](C)/C=C/C=C/C=C/C=C/C=C/C=C/C=C/[C@H](O[C@@H]2O[C@H](C)[C@@H](O)[C@H](N)[C@@H]2O)C[C@@H]2O[C@](O)(C[C@@H](O)C[C@@H](O)[C@H](O)CC[C@@H](O)C[C@@H](O)CC(=O)O[C@H]1C)C[C@H](O)[C@H]2C(=O)O [AMPHOTERICIN B] | 1 (≈ 1.08 µM) | 1 (≈ 1.08 µM) | – | 0.5 (≈ 0.541 µM) | – | – | 1 (≈ 1.08 µM) | – | – | –
CC1(C)S[C@@H]2[C@H](NC(=O)[C@H](N)c3ccccc3)C(=O)N2[C@H]1C(=O)O [AMPICILLIN] | – | – | 0.5 (≈ 1.43 µM) | – | 0.13 (≈ 0.372 µM) | 8 (≈ 22.9 µM) | – | 0.5 (≈ 1.43 µM) | > 128 | 0.5 (≈ 1.43 µM)

Source: ChEMBL document CHEMBL5634180, “Serratiomycins D1-D3, Antibacterial Cyclic Peptides from a Serratia sp. and Structure Revision of Serratiomycin” (2024)
